From the NIST ThermoML archive (doi:10.1021/je700700f)
± gives the expanded uncertainty stated by the source.

Legend:
[1] = 298.15 K, Liquid; for viscosity: Capillary tube (Ostwald / Ubbelohde) method
[2] = refractive index (Na D-line) (dimensionless); conditions: 298.15 K; 101.33 kPa; Liquid; Standard Abbe refractometry
[3] = xn = mol fraction of the nth substance listed; conditions: 298.15 K, 101 kPa, Liquid; for viscosity: Capillary tube (Ostwald / Ubbelohde) method
[4] = refractive index (Na D-line) (dimensionless); xn = mol fraction of the nth substance listed; conditions: 298.15 K, 101 kPa, Liquid, Standard Abbe refractometry

CCOS(=O)(=O)[O-].CCn1cc[n+](C)c1 [1-ethyl-3-methylimidazolium ethyl sulfate]
[1], 101.33 kPa
Conditions	mass density [kg/m3]	viscosity [mPa·s]
–	1237.63 ± 1.7	97.58 ± 3.2

CC(C)O [propan-2-ol]
[1], 101 kPa
Conditions	mass density [kg/m3]	viscosity [mPa·s]
–	780.7 ± 0.5	2.082 ± 0.013

Conditions	refractive index
[2]	1.375 ± 0.0007

CC(C)O [propan-2-ol] + O
Conditions	mass density, [3] [kg/m3]	refractive index, [4]	viscosity, [3] [mPa·s]
x1 = 0.0491	974.6 ± 0.2	1.3456 ± 0.0007	1.718 ± 0.011
x1 = 0.1008	953.6 ± 0.2	1.3557 ± 0.0007	2.495 ± 0.015
x1 = 0.2011	912.6 ± 0.3	1.365 ± 0.0007	3.038 ± 0.017
x1 = 0.2994	881.6 ± 0.3	1.3697 ± 0.0007	3.087 ± 0.018
x1 = 0.3992	857.7 ± 0.4	1.3724 ± 0.0007	2.924 ± 0.017
x1 = 0.4981	838.8 ± 0.4	1.374 ± 0.0007	2.693 ± 0.016
x1 = 0.5979	823.5 ± 0.4	1.3749 ± 0.0007	2.489 ± 0.015
x1 = 0.6987	810.6 ± 0.4	1.3754 ± 0.0007	2.274 ± 0.014
x1 = 0.7993	799.4 ± 0.5	1.3756 ± 0.0007	2.153 ± 0.013
x1 = 0.8998	789.8 ± 0.5	1.3754 ± 0.0007	2.073 ± 0.013
x1 = 0.9495	785.4 ± 0.5	1.3752 ± 0.0007	2.063 ± 0.013
x1 = 1	780.7 ± 0.5	1.375 ± 0.0007	2.082 ± 0.013

CCCO [propan-1-ol]
[1], 101 kPa
Conditions	mass density [kg/m3]	viscosity [mPa·s]
–	799.6 ± 0.4	2.017 ± 0.012

Conditions	refractive index
[2]	1.38309 ± 0.00068

CCCO [propan-1-ol] + O
Conditions	mass density, [3] [kg/m3]	refractive index, [4]	viscosity, [3] [mPa·s]
x1 = 0.0504	975.1 ± 0.2	1.34612 ± 0.00068	1.616 ± 0.011
x1 = 0.0993	953.3 ± 0.2	1.35475 ± 0.00068	2.121 ± 0.013
x1 = 0.1986	914.9 ± 0.3	1.36491 ± 0.00068	2.599 ± 0.015
x1 = 0.2979	887.2 ± 0.3	1.37116 ± 0.00068	2.691 ± 0.015
x1 = 0.3949	866.9 ± 0.4	1.37516 ± 0.00068	2.61 ± 0.015
x1 = 0.4955	850.3 ± 0.4	1.37805 ± 0.00068	2.494 ± 0.014
x1 = 0.5953	836.9 ± 0.4	1.38008 ± 0.00068	2.339 ± 0.014
x1 = 0.6995	825.6 ± 0.4	1.38154 ± 0.00068	2.221 ± 0.013
x1 = 0.7969	816.3 ± 0.4	1.38239 ± 0.00068	2.124 ± 0.013
x1 = 0.8983	807.7 ± 0.4	1.38299 ± 0.00068	2.026 ± 0.012
x1 = 0.9518	803.5 ± 0.4	1.38308 ± 0.00068	1.998 ± 0.012
x1 = 1	799.6 ± 0.4	1.38309 ± 0.00068	2.017 ± 0.012
